pIC50: −log10 of the molar value. Counter-ions that a name gives are not always drawn.
The compounds below were run against T1, human TRPC6 (Homo sapiens, UniProt Q9Y210) (assay: TRPC6 calcium flux assay (FLIPR, OAG-stimulated calcium influx)). Conditions: HEK293 cells stably transfected with human TRPC6, read-out: hTRPC6 Potency.
T1 construct: expressed in transfected cells
T1 sequence (Q9Y210 1-931): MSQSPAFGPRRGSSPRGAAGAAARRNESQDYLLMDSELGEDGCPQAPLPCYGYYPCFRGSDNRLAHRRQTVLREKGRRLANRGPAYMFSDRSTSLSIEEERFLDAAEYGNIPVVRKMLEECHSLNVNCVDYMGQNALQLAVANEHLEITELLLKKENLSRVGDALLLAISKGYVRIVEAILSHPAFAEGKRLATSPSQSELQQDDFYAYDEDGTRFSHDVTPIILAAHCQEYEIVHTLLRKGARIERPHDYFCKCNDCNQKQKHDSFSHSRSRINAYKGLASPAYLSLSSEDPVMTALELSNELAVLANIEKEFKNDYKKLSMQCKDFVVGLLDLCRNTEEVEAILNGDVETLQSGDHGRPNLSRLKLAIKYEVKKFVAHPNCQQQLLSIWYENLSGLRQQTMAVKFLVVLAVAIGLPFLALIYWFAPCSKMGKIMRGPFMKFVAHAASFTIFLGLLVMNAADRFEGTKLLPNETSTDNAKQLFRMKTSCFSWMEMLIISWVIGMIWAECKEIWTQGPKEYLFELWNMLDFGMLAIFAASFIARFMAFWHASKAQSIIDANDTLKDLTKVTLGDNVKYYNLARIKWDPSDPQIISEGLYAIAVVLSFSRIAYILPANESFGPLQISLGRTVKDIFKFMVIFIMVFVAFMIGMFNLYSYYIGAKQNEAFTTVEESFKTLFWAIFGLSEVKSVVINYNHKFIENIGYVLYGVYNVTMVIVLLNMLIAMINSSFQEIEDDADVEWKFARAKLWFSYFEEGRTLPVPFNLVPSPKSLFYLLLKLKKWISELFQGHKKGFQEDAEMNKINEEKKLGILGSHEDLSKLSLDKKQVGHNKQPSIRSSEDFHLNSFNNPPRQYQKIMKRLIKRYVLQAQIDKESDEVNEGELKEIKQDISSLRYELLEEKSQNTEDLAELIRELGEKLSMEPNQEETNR
Assay type: cell-based
Method in brief: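 HEK293 cells stably expressing human TRPC6, loaded with calcium dye 90–120 min at RT, then given compound for 25 min before OAG (50 uM final, 0.5% DMSO) in HEPES buffer pH 7.2 with 2 mM CaCl2. Background-subtracted FLIPR peak over 180 s normalized to OAG vs buffer; IC50 from dose plot.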

Compound	pIC50
N#Cc1ccc(Cn2c(N3CCC[C@@]4(CCN4)C3)nc3ccccc32)nc1 [Example 27, (R)-6-((2-(1,6-diazaspiro[3.5]nonan-6-yl)-1H-benzo[d]imidazol-1-yl)methyl)nicotinointrile]	7.13
N#Cc1ccc(Cn2c(N3CCC[C@]4(CCN4)C3)nc3ccccc32)nc1 [Example 28, (S)-6-((2-(1,6-diazaspiro[3.5]nonan-6-yl)-1H-benzo[d]imidazol-1-yl)methyl)nicotinonitrile]	< 5.43
CS(=O)(=O)c1ccc2nc(N3CC[C@@H](F)[C@H](N)C3)n(Cc3ccc(Cl)cn3)c2c1 [Example 29, (3R,4R)-1-(1-((5-chloropyridin-2-yl)methyl)-6-(methylsulfonyl)-1H-benzo[d]imidazol-2-yl)-4-fluoropiperidin-3-amine]	7.35
CS(=O)(=O)c1ccc2c(c1)nc(N1CC[C@@H](F)[C@H](N)C1)n2Cc1ccc(Cl)cn1 [Example 30, (3R,4R)-1-(1-((5-chloropyridin-2-yl)methyl)-5-(methylsulfonyl)-1H-benzo[d]imidazol-2-yl)-4-fluoropiperidin-3-amine]	5.71
N#Cc1cc(F)cc2c1nc(N1CC[C@@H](F)[C@H](N)C1)n2Cc1ncc(Cl)cn1 [Example 31, 2-((3R,4R)-3-amino-4-fluoropiperidin-1-yl)-1-((5-chloropyrimidin-2-yl)methyl)-6-fluoro-1H-benzo[d]imidazole-4-carbonitrile]	9.32
N[C@@H]1CN(c2nc3cc(F)cc(F)c3n2Cc2ccc(F)cn2)CC[C@H]1F [Example 32, (3R,4R)-1-(5,7-difluoro-1-((5-fluoropyridin-2-yl)methyl)-1H-benzo[d]imidazol-2-yl)-4-fluoropiperidin-3-amine]	7.33
N[C@@H]1CN(c2nc3c(F)cc(F)cc3n2Cc2ccc(F)cn2)CC[C@H]1F [Example 33, (3R,4R)-1-(4,6-difluoro-1-((5-fluoropyridin-2-yl)methyl)-1H-benzo[d]imidazol-2-yl)-4-fluoropiperidin-3-amine]	9.36
N[C@@H]1CN(c2nc3cc(F)cc(F)c3n2Cc2ncc(F)cn2)CC[C@H]1F [Example 34, (3R,4R)-1-(5,7-difluoro-1-((5-fluoropyrimidin-2-yl)methyl)-1H-benzo[d]imidazol-2-yl)-4-fluoropiperidin-3-amine]	7.16
N[C@@H]1CN(c2nc3c(F)cc(F)cc3n2Cc2ncc(F)cn2)CC[C@H]1F [Example 35, (3R,4R)-1-(4,6-difluoro-1-((5-fluoropyrimidin-2-yl)methyl)-1H-benzo[d]imidazol-2-yl)-4-fluoropiperidin-3-amine]	9.31
N#Cc1cc(F)cc2c1nc(N1CC[C@H](F)[C@H](N)C1)n2Cc1ncc(F)cn1 [Example 36, 2-((3R,4S)-3-amino-4-fluoropiperidin-1-yl)-6-fluoro-1-((5-fluoropyrimidin-2-yl)methyl)-1H-benzo[d]imidazole-4-carbonitrile]	8.21
N#Cc1cc(F)cc2c1nc(N1CC[C@@H](F)[C@H](N)C1)n2Cc1ncc(F)cn1 [Example 37, 2-((3R,4R)-3-amino-4-fluoropiperidin-1-yl)-6-fluoro-1-((5-fluoropyrimidin-2-yl)methyl)-1H-benzo[d]imidazole-4-carbonitrile]	8.16
N#Cc1ccc(Cn2c(N3CC[C@@H](F)[C@H](N)C3)nc3ccccc32)nc1 [Example 38, 6-((2-((3R,4R)-3-amino-4-fluoropiperidin-1-yl)-1H-benzo[d]imidazol-1-yl)methyl)nicotinonitrile]	9.14
N[C@@H]1CN(c2nc3ccc(F)cc3n2Cc2ncc(Cl)cn2)CC[C@@H]1F [Example 39, (3R,4S)-1-(1-((5-chloropyrimidin-2-yl)methyl)-6-fluoro-1H-benzo[d]imidazol-2-yl)-4-fluoropiperidin-3-amine]	9.06
N[C@@H]1CN(c2nc3cc(F)ccc3n2Cc2ncc(Cl)cn2)CC[C@@H]1F [Example 40, (3R,4S)-1-(1-((5-chloropyrimidin-2-yl)methyl)-5-fluoro-1H-benzo[d]imidazol-2-yl)-4-fluoropiperidin-3-amine]	8.34
N#Cc1ccc2nc(N3CCC(F)(F)[C@H](N)C3)n(Cc3ncc(Cl)cn3)c2c1 [Example 41, (R)-2-(3-amino-4,4-difluoropiperidin-1-yl)-1-((5-chloropyrimidin-2-yl)methyl)-1H-benzo[d]imidazole-6-carbonitrile]	7.74
N#Cc1ccc2c(c1)nc(N1CCC(F)(F)[C@H](N)C1)n2Cc1ncc(Cl)cn1 [Example 42, (R)-2-(3-amino-4,4-difluoropiperidin-1-yl)-1-((5-chloropyrimidin-2-yl)methyl)-1H-benzo[d]imidazole-5-carbonitrile]	5.71
N#Cc1ccc(Cn2c(N3CC[C@@H](F)[C@H](N)C3)nc3cc(Cl)c(Cl)cc32)nc1 [Example 43, 6-((2-((3R,4R)-3-amino-4-fluoropiperidin-1-yl)-5,6-dichloro-1H-benzo[d]imidazol-1-yl)methyl)nicotinonitrile]	9.24
Cc1cc2nc(N3CC[C@@H](F)[C@H](N)C3)n(Cc3ccc(C#N)cn3)c2cc1C [Example 44]	9.02
N#Cc1ccc(Cn2c(N3CCC[C@H](N)C3)nc3ccc(F)cc32)nc1 [Example 45, (S)-6-((2-(3-aminopiperidin-1-yl)-6-fluoro-1H-benzo[d]imidazol-1-yl)methyl)nicotinonitrile hydrochloride]	8.63
N#Cc1ccc(Cn2c(N3CCC[C@H](N)C3)nc3cc(F)ccc32)nc1 [Example 46, (S)-6-((2-(3-aminopiperidin-1-yl)-5-fluoro-1H-benzo[d]imidazol-1-yl)methyl)nicotinonitrile hydrochloride]	8.75
N#Cc1ccc(Cn2c(N3CC[C@H](F)[C@H](N)C3)nc3ccc(F)cc32)nc1 [Example 47, 6-((2-((3R,4S)-3-amino-4-fluoropiperidin-1-yl)-6-fluoro-1H-benzo[d]imidazol-1-yl)methyl)nicotinonitrile hydrochloride]	9.16

Continued, values first:

pIC50	Compound
8.66	N#Cc1ccc(Cn2c(N3CC[C@H](F)[C@H](N)C3)nc3cc(F)ccc32)nc1 [Example 48, 6-((2-((3R,4S)-3-amino-4-fluoropiperidin-1-yl)-5-fluoro-1H-benzo[d]imidazol-1-yl)methyl)nicotinonitrile hydrochloride]
8.96	N#Cc1ccc(Cn2c(N3CC[C@@H](F)[C@H](N)C3)nc3cc(F)ccc32)nc1 [Example 49, 6-((2-((3R,4R)-3-amino-4-fluoropiperidin-1-yl)-5-fluoro-1H-benzo[d]imidazol-1-yl)methyl)nicotinonitrile hydrochloride]
8.19	N#Cc1ccc(Cn2c(N3CCC[C@H](N)C3)nc3ccc(C#N)cc32)nc1 [Example 51, (S)-2-(3-aminopiperidin-1-yl)-1-((5-cyanopyridin-2-yl)methyl)-1H-benzo[d]imidazole-6-carbonitrile]
7.62	N#Cc1ccc(Cn2c(N3CCC[C@H](N)C3)nc3cc(C#N)ccc32)nc1 [Example 52, (S)-2-(3-aminopiperidin-1-yl)-1-((5-cyanopyridin-2-yl)methyl)-1H-benzo[d]imidazole-5-carbonitrile]
8.82	N#Cc1ccc(Cn2c(N3CC[C@@H](F)[C@H](N)C3)nc3ccc(C#N)cc32)nc1 [Example 53, 2-((3R,4R)-3-amino-4-fluoropiperidin-1-yl)-1-((5-cyanopyridin-2-yl)methyl)-1H-benzo[d]imidazole-6-carbonitrile]
8.26	N#Cc1ccc(Cn2c(N3CC[C@@H](F)[C@H](N)C3)nc3cc(C#N)ccc32)nc1 [Example 54, 2-((3R,4R)-3-amino-4-fluoropiperidin-1-yl)-1-((5-cyanopyridin-2-yl)methyl)-1H-benzo[d]imidazole-5-carbonitrile]
8.40	N#Cc1ccc(Cn2c(N3CCC(F)(F)[C@H](N)C3)nc3ccc(C#N)cc32)nc1 [Example 55, (R)-2-(3-amino-4,4-difluoropiperidin-1-yl)-1-((5-cyanopyridin-2-yl)methyl)-1H-benzo[d]imidazole-6-carbonitrile]
7.87	N#Cc1ccc(Cn2c(N3CCC(F)(F)[C@H](N)C3)nc3cc(C#N)ccc32)nc1 [Example 56, (R)-2-(3-amino-4,4-difluoropiperidin-1-yl)-1-((5-cyanopyridin-2-yl)methyl)-1H-benzo[d]imidazole-5-carbonitrile]
9.11	N#Cc1ccc(Cn2c(N3CCC[C@H](N)C3)nc3c(Cl)cc(Cl)cc32)nc1 [Example 57, (S)-6-((2-(3-aminopiperidin-1-yl)-4,6-dichloro-1H-benzo[d]imidazol-1-yl)methyl)nicotinonitrile]

Reference: patent US11332459B2 (TEIJIN PHARMA LIMITED, priority 2017, dated 2022)
